Measurements: patent publication US20250188032A1, “NITROGEN-CONTAINING HETEROCYCLIC COMPOUNDS AND USES THEREOF” (BNH RESEARCH CO., LTD., priority 2022, published 2025)

Legend:
[1] = tested on: C57BL/6J mice barrel cortex (layer 4); test: Synaptic function test: TC EPSC potency and GABA/AMPA ratio in barrel cortex (layer 4); type: in vivo
Description: Eight weeks old male C57BL/6J mice were anesthetized with isoflurane during surgery. The mice were then be placed in a stereotaxic frame (RWD Life Science, China). The parietal and the frontal bones were exposed by a sagittal incision of the scalp at the midline from the level of the eyes to the occipital protuberance. A small burr hole was drilled after exposing the skull. The injection cannula was placed at the following coordinates: (Mouse: Bregma −3.30, lateral −1.50, and ventral 0.7 mm). Sterile saline solution (+/−a compound of the present disclosure) was perfused at a constant flow rate of 0.5 μL/h through the injection cannula using a mini-Os pump (DURECT Corporation ALZET Osmotic Pumps, CA). Implantation was done in layer 4 of the barrel cortex ipsilateral. To estimate extent of the diffusion of the injected compound in layer 4 barrel cortex during pump injection, methylene blue was first injected to stain the diffusion area. On average methylene blue diffused to […] away from the injection site (the total area of the barrel cortex region is about 1500 μm). Based on this analysis, the present inventors recorded from barrel cortex area.
2 mg of BnH12001 was dissolved in 800 ul of DMSO and prepared as a stock solution. For oral administration, BnH12001 DMSO stock:PEG400:Saline was mixed in a ratio of 5:55:40 and 200 μl/animal was administered. For the control group, a vehicle in which DMSO:PEG400:Saline was mixed in a 5:55:40 ratio was administered at 200 ul/animal. In the single drug administration test, the compound was administered once a day for about 11 to 12 days at a dose of 1 mg/kg. Dose response test was performed by administering the compound once a day for about 11 to 12 days at doses of 0.03, 0.1, 0.3, 1, 3, and 10 mg/kg. 5 mice were used for the compound administration group and the control group, respectively.
For TC or hippocampus slice preparation. 9 to 10 weeks-old male C57BL/6J mice were anesthetized with isoflurane. Then, the brain was rapidly cooled via transcardial perfusion with ice-cold sucrose-artificial cerebrospinal fluid (aCSF). The brain was removed and placed in ice-cold sucrose aCSF. Paracoronal slices were prepared at an angle of 50° relative to the midline on a ramp at an angle of 10°. Then, slices were incubated in aCSF at 35° C. for 30 minutes to recover. Slices were then incubated in aCSF at room temperature (23 to 25° C.) for 1 to 4 hours before being placed in the recording chamber for experiments. The standard aCSF contains saturated with 95% O2/5% CO2. The brain of the mouse was removed and cut into 400 μm at a 50° angle (mouse at a 55° angle) to attach the cut portion to the vibratome disc to be the bottom. Brain slice was incubated in 35° C. in aCSF solution for 30 minutes, or at RT in aCSF solution for 1 hour.
All electrophysiological experiments were conducted at 27 to 29° C. For electrophysiological experiments, electrodes with […] resistance were used and stimuli were applied to the ventral posteromedial nucleus (VPM) using a concentric bipolar electrode (FHC, Bowdoin, ME). The somatosensory cortex was identified by the presence of barrels under 4× magnification and differential interference contrast (DIC) optics, and by the ability to evoke short and constant latency field excitatory postsynaptic potentials (fEPSPs) by VPM stimulation. Whole-cell voltage-clamp recordings were made from stellate cells (SC) in layer IV of the somatosensory barrel cortex using infrared illumination and differential interference contrast (DIC) optics. The composition of whole cell recording solution is shown as follows:
Whole cell recordings were made using a multiclamp 700A (Molecular devices, Sunnyvale, CA) digitized at 10 kHz and filtered at 2 kHz. […]

[2] = tested on: 293T cells; test: Cytotoxicity test (CCK-8 cell viability) in 293T cells; type: cell-based, human; details: 24 hours co-incubation, 293T cell line, % of control
Procedure: Human undifferentiated neuroblastoma cell line SH-SY5Y and human embryonic kidney cell line (HEK)-293T were purchased from Korean Cell Line Bank (Korea) and Takara (Japan), respectively. Cells were grown in HyClone Minimal Essential Medium (MEM) and Dulbecco's Modified Eagle Medium (DMEM), respectively, supplemented with 10% (v/v) fetal bovine serum (FBS), penicillin (100 U/mL), and streptomycin ([…]). Cells were maintained in a humidified atmosphere of 95% air and 5% CO2 at 37° C. Cells were passaged 10 times at maximum. Cells were dissociated using 0.05% trypsin-EDTA solution and the cells were seeded in new culture dishes for maintenance.
To examine the cytotoxicity of compounds described herein in human cell lines, SH-SY5Y and 293T cells were used. Approximately 8,000 cells (for 293T) and 15,000 cells (for SH-SY5Y) were plated per well of a 96-well plate (SPL Life Sciences Co., Ltd., Pocheon, Korea). After incubating at 37° C. for 24 hours in a humidified atmosphere containing 5% CO2, the culture medium was replaced by a series of concentrations of test compounds diluted in the corresponding culture medium. The time of co-incubation was 24 hours and six replicates were made for each measurement. Finally, 10 μL of CCK-8 reagent (Dojindo Laboratories, Rockville, MD) was added to each well, and after incubation at 37° C. for 3 minutes, the OD at 450 nm was measured using a multifunction microplate reader (Tecan Infinite M200 Pro). These measurements were compared to that of a control and expressed as a percentage of the control to calculate cell viability. The IC50 value was calculated using SPSS software. To do this, the absorbance of the blank wells with only growth medium is subtracted from the values or the wells with cells. The readout value of background (vehicle) was set as a 100% viability, and then the percent viability for each test solution was calculated.
Cell viability (%)=[(As-Ab)/(Ac-Ab)]×100
The data was presented as the mean value and standard error of the mean (S.E.M.). Statistical analysis was performed with the one-way ANOVA with Tukey's post hoc test (GraphPad Prism 5 software package, version 5.02, GraphPad Software Inc. USA). Significance was accepted at p<0.05.

[3] = tested on: GluN2B; test: Western blot of GluN2B protein in cultured fetal cortical cells; type: cell-based, mice; details: for GluN2B expression, Western blot results, Mean: relative value, vehicle set to 1, treated for 24 hours, N 3 or more
Procedure: The amount of GluN2B reacted with the compound of the present disclosure was measured using Western blot. The fetal cerebral cortex was extracted from mice at 17 days of gestation, dissociated into single cells, cultured for 13 days, and treated with BnH drugs for 24 hours. The drug-treated cells were subjected to protein lysate preparation using RIPA protein lysis buffer containing protease and phosphatase inhibitors. The protein concentration was determined using a BCA protein assay kit (Pierce Biotechnology) using bovine serum albumin as a standard. Equal amounts of protein (20 μg per lane) were separated by electrophoresis on SDS-polyacrylamide gels at 90 V for 2 hours, then transferred from the SDS-polyacrylamide gel to PVDF membrane at 100 V for 1 hour. Then, primary reaction with GluN2B antibody (ab65783, Abcam) was performed at 4° C. for 1 day, washed three times at 10-minutes intervals with 1×PBT, and secondary reaction was performed with anti-mouse antibody (sc-2357, Santa Cruz) for 1 hour, followed by washing three times at 10-minutes intervals with 1×PBT. Western blotting was performed as described above to confirm GluN2B protein expression. Subsequently, each blot was re-probed using anti-β-actin antibody (sc-47778, Santa Cruz). Housekeeping protein β-actin was detected as a normalization control.
The increase and decrease of BnH12 series were confirmed by setting the vehicle to 1 (N for each group was 3 or more).
Using the experimental procedure described in Example 3, it was determined whether various BnH12 series compounds increase GluN2B expression, and the results are shown in Table 6. These in vitro experimental results are expressed as relative values to the group (vehicle) that was not treated with the compound, with the effect of the group set to 1.

[4] = oral, 1 mg/kg, 8-week-old C57BL/6J mice
[5] = applied to the mice barrel cortex using Alzet osmotic pump

For cyclotraxin B [reference compound], the “BDNF-induced augmentation of TC EPSC potency” value ([1]; cyclotraxin B 1 μM application) was “almost completely prevented” and the “BnH12001-induced increase of TC EPSC potency” value ([1]; cyclotraxin B 1 μM application) was “nearly completed hindered”.

In the case of `C[C@H]1CC[C@@H](C(=O)O)CN1C(=O)Cc1ccc(F)cc1Cl` [BnH12001 enantiomer (3R,6S, 98%<), (3R,6S)-1-(2-(2-chloro-4-fluorophenyl)acetyl)-6-methylpiperidine-3-carboxylic acid], the “Balance of excitation/inhibition (GABA/AMPA ratio)” value [1, 4] is reported as “maintaining the balance of excitation/inhibition”, the “Efficacy on TC synaptic potency compared among racemate and enantiomers” value [1, 4] is reported as “better efficacy than the racemate” and the “TC synaptic potency in the sensory cortex” value [1, 4] is reported as “increase the TC synaptic potency”.

With `C[C@H]1CC[C@@H](C(=O)O)CN1C(=O)Cc1cccc(N)c1` [BnH12074, (3R,6S)-1(2-(3-aminophenyl)acetyl)-6-methylpiperidine-3-carboxylic acid] the “Cell viability test results (CCK) 10 uM” value [2] was 85%<, the “Cell viability test results (CCK) 100 uM” value [2] was 80%< and the “Effect on GluN2B expression compared to the vehicle” value ([3]; comment on Table 6) was “excellent effects”. For the same molecule, the “GluN2B expression, Western blot results, Mean” value [3] was 2.146.

With `C[C@H]1CC[C@@H](C(=O)O)CN1C(=O)c1ccccc1` [BnH12065, (3R,6S)-1-benzoyl-6-methylpiperidine-3-carboxylic acid] the “Cell viability test results (CCK) 10 uM” value [2] was 95%<, the “Cell viability test results (CCK) 100 uM” value [2] was 95%< and the “GluN2B expression, Western blot results, Mean” value [3] was 1.326.

B1: BDNF: brain-derived neurotrophic factor applied to the mice barrel cortex using Alzet osmotic pump (protein, UniProt P23560 19-247, looked up)
Neurotrophic factor BDNF …: APMKEANIRGQGGLAYPGVRTHGTLESVNGPKAGSRGLTSLADTFEHVIEELLDEDQKVRPNEENNKDADLYTSRVMLSSQVPLEPPLLFLLEEYKNYLDAANMSMRVRRHSDPARRGELSVCDSISEWVTAADKKTAVDMSGGTVTVLEKVPVSKGQLKQYFYETKCNPMGYTKEGCRGIDKRHWNSQCRTTQSYVRALTMDSKKRIGWRFIRIDTSCVCTLTIKRGR
B1 was tested, and the IPSC/EPSC ratio [1, 5] was “without alteration” and the “TC EPSC potency” value [1, 5] was “significantly increased”.
